According to publication PMC5091360 (Science Advances, 2016):

Tests used:
mouse VEGFR-3 = experiment: phage binding assay, immobilized mouse VEGFR-3; details: 10^8 TU in 50 μl PBS, 2 hours, room temperature; control insertless phage Fd; colony count or phage-FLISA; triplicate plating
NRP-2 = experiment: phage binding assay, immobilized NRP-2; details: 10^8 TU in 50 μl PBS, 2 hours, room temperature; triplicate plating
human VEGFR-3 = experiment: phage binding assay, immobilized human VEGFR-3; details: 10^8 TU in 50 μl PBS, 2 hours, room temperature; control insertless phage Fd; colony count or phage-FLISA; triplicate plating
NRP-1 = experiment: phage binding assay, immobilized NRP-1; details: 10^8 TU in 50 μl PBS, 2 hours, room temperature; triplicate plating
VEGFR-2 = experiment: phage binding assay, immobilized VEGFR-2; details: 10^8 TU in 50 μl PBS, 2 hours, room temperature; triplicate plating
VEGFR-1 = experiment: phage binding assay, immobilized VEGFR-1; details: 10^8 TU in 50 μl PBS, 2 hours, room temperature; triplicate plating
rat NRP-2 = biological target: T1, rat NRP-2 (rat, UniProt O35276); experiment: ELISA
T1 sequence: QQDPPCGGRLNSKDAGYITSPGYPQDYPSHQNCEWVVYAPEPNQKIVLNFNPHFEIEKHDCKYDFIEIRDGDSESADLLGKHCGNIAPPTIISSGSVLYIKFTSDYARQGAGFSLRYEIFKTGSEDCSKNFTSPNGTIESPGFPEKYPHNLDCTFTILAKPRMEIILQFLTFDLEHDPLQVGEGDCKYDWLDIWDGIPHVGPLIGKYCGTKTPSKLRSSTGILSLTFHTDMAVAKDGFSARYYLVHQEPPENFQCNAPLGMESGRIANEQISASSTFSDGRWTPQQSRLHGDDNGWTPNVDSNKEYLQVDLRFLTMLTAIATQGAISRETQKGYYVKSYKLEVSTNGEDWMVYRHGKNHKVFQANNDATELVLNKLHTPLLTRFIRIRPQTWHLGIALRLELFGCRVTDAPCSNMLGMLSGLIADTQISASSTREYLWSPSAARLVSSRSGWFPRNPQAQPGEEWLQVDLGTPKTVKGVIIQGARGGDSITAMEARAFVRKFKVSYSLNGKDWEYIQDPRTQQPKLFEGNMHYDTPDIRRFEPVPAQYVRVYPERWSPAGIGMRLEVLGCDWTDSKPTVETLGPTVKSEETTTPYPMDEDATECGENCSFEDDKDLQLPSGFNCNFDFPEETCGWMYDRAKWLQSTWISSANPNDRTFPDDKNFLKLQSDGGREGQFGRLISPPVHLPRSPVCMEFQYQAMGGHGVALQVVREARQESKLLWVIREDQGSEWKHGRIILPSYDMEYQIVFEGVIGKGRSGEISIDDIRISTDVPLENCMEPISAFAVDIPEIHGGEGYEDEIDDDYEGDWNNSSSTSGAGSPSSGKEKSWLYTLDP

PCAIWF [phage PCAIWF]
phage binding to mouse VEGFR-3 (mouse VEGFR-3): both phages bound to mouse and human VEGFR-3 | phage binding to NRP-2 (NRP-2): not to the other receptors, VEGFR-1 and VEGFR-2 (Fig. 1, C and D), including the two other non-RTKs, NRP-1 and NRP-2 | phage binding to human VEGFR-3 (human VEGFR-3): both phages bound to mouse and human VEGFR-3 | phage binding to NRP-1 (NRP-1): not to the other receptors, VEGFR-1 and VEGFR-2 (Fig. 1, C and D), including the two other non-RTKs, NRP-1 and NRP-2 | phage binding to VEGFR-2 (VEGFR-2): not to the other receptors, VEGFR-1 and VEGFR-2 | phage binding to VEGFR-1 (VEGFR-1): not to the other receptors, VEGFR-1 and VEGFR-2

B1: human VEGFR-1 extracellular domain (Fc fusion) (Fc fusion)
chain: SKLKDPELSLKGTQHIMQAGQTLHLQCRGEAAHKWSLPEMVSKESERLSITKSACGRNGKQFCSTLTLNTAQANHTGFYSCKYLAVPTSKKKETESAIYIFISDTGRPFVEMYSEIPEIIHMTEGRELVIPCRVTSPNITVTLKKFPLDTLIPDGKRIIWDSRKGFIISNATYKEIGLLTCEATVNGHLYKTNYLTHRQTNTIIDVQISTPRPVKLLRGHTLVLNCTATTPLNTRVQMTWSYPDEKNKRASVRRRIDQSNSHANIFYSVLTIDKMQNKDKGLYTCRVRSGPSFKSVNTSVHIYDKAFITVKHRKQQVLETVAGKRSYRLSMKVKAFPSPEVVWLKDGLPATEKSARYLTRGYSLIIKDVTEEDAGNYTILLSIKQSNVFKNLTATLIVNVKPQIYEKAVSSFPDPALYPLGSRQILTCTAYGIPQPTIKWFWHPCNHNHSEARCDFCSNNEESFILDADSNMGNRIESITQRMAIIEGKNKMASTLVVADSRISGIYICIASNKVGTVGRNISFYITDVPNGFHVNLEKMPTEGEDLKLSCTVNKFLYRDVTWILLRTVNNRTMHYSISKQKMAITKEHSITLNLTIMNVSLQDSGTYACRARNVYTGEEILQKKEITIRDQEAPYLLRNLSDHTVAISSSTTLDCHANGVPEPQITWFKNNHKIQQEPGIILGPGSSTLFIERVTEEDEGVYHCKATNQKGSVESSAYLTVQGTSDKSNLE
binding result (rat NRP-2): binds
